In ChEMBL document CHEMBL1138606, “The discovery of tropane derivatives as nociceptin receptor ligands for the management of cough and anxiety” (Bioorg Med Chem Lett, 2009):
Calls of active or inactive are those of the source. No cut-off for these calls is given here.

Legend:
[1] = Cmax in rat at 3 mg/kg, po; assay type: ADME, organism-based; design: dose 3 mg/kg, route oral; settings: in vivo
Cytochrome P450 3A4 = Cytochrome P450 3A4 (Homo sapiens, UniProt P08684); experiment: Inhibition of CYP3A4; assay type: ADME
[2] = Clearance in human hepatocytes measured per 10^6 cells; assay type: ADME, cell-based, Liver, Hepatocyte
[3] = Oral bioavailability in rat at 3 mg/kg; assay type: ADME, organism-based; settings: in vivo
[4] = Clearance in rat at 3 mg/kg, po; assay type: ADME, organism-based; design: dose 3 mg/kg, route oral; settings: in vivo
Cytochrome P450 2C9 [5] = molecular target: T1, Cytochrome P450 2C9 (Homo sapiens, UniProt P11712); experiment: Inhibition of CYP2C9 co-incubated with substrate; assay type: ADME
Cavia porcellus [6] = species on record: Cavia porcellus; experiment: Anxiolytic activity in Dunkin-Hartley guinea pig pup assessed as reduction in number of vocalization produced due to separation measured after 2 hrs; assay type: functional
Cavia porcellus [7] = experiment: Antitussive activity against capsaicin-induced cough in po dosed Hartley guinea pig model after 2 hrs; assay type: functional
Cytochrome P450 2D6 = Cytochrome P450 2D6 (Homo sapiens, UniProt P10635); experiment: Inhibition of CYP2D6; assay type: ADME
[8] = AUC (0 to 24 hrs) in rat at 3 mg/kg, po; assay type: ADME, organism-based; design: time < 24 hr, dose 3 mg/kg, route oral; settings: plasma
Rattus norvegicus [9] = experiment: Anxiolytic activity in po dosed CD rats assessed as suppression of conditioned paw licking administered twice per day for 14 days measured after 2 hrs of last dose; assay type: functional
[10] = Half life in rat at 3 mg/kg, po; assay type: ADME, organism-based; design: dose 3 mg/kg, route oral; settings: in vivo
Rattus norvegicus [11] = experiment: Volume of distribution at steady state in rat at 3 mg/kg, po; assay type: ADME, organism-based; design: dose 3 mg/kg, route oral; settings: in vivo
Cytochrome P450 2C9 [12] = molecular target: T1, Cytochrome P450 2C9; experiment: Inhibition of CYP2C9 pre-incubated before addition of substrate; assay type: ADME
Rattus norvegicus [13] = experiment: Anxiolytic activity in po dosed CD rats assessed as suppression of conditioned paw licking administered twice per day for 14 days measured after 2 hrs of last dose in presence of […]; assay type: functional, organism-based

T1 sequence (P11712 whole entry): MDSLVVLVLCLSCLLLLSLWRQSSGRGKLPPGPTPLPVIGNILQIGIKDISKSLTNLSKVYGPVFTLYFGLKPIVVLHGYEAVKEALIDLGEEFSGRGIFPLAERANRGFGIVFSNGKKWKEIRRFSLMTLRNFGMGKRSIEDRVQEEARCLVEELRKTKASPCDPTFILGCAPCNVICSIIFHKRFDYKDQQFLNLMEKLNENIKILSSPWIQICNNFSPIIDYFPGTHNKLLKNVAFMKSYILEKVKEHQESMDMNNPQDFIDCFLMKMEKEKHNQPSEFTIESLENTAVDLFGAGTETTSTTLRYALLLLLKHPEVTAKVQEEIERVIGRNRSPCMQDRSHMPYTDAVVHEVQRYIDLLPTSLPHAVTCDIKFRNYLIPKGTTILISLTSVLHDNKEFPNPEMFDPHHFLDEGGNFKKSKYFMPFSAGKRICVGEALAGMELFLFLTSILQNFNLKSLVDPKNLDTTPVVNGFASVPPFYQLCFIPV
Sequence of Cytochrome P450 2D6 (P10635 whole entry): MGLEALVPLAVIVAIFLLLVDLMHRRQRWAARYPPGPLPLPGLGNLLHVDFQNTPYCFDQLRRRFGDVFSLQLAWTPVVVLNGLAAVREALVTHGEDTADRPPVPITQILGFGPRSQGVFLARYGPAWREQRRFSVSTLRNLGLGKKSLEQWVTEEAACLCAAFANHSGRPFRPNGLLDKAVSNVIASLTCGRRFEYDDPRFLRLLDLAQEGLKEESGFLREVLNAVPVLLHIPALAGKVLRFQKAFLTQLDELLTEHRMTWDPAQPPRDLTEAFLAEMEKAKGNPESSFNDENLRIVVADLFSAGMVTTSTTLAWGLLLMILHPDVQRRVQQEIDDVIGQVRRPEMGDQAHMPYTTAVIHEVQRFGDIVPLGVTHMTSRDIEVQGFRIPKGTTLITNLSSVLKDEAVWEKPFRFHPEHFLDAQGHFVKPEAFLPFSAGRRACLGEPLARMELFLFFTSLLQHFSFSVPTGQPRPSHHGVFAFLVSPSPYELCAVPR
Sequence of Cytochrome P450 3A4 (P08684 whole entry): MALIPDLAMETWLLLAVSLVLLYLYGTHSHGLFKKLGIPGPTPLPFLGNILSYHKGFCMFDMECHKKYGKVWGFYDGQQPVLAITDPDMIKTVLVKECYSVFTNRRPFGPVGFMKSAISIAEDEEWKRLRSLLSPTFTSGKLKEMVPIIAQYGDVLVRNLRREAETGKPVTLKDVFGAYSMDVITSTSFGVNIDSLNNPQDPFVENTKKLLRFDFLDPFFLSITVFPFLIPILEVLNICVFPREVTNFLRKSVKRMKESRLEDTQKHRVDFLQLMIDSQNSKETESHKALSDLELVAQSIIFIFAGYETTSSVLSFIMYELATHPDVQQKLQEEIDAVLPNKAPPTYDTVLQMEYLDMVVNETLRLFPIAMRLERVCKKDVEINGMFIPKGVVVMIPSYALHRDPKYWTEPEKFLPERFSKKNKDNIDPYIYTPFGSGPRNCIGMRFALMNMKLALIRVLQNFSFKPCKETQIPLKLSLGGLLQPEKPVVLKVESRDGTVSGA

In the case of NC(=O)C1(c2ccccc2)CC2CCC(C1)N2C(c1ccccc1Cl)c1ccccc1Cl (stereo not given), the Cmax [1] is reported as 80 nM, the IC50 (Cytochrome P450 3A4) is reported as over 30 µM and the hepatocyte CLint [2] is reported as 3 µL/min/1e6 cells. It also gave a bioavailability [3] of 37%, a CL/F [4] of 73 mL/min/kg and an IC50 (Cytochrome P450 2C9 [5]) of 8 µM. For the same molecule, the ED50 (Cavia porcellus [6]) was 0.4 mg/kg, the ED50 (Cavia porcellus [7]) was 0.3 mg/kg and the IC50 (Cytochrome P450 2D6) was over 30 µM. For the same molecule, the AUC(0-t) at 24 h [8] was 0.54 µM·h, the ED50 (Rattus norvegicus [9]) was 1.4 mg/kg and the half-life [10] was 1.8 h. The Vdss (Rattus norvegicus [11]) was 9.1 L/kg, the IC50 (Cytochrome P450 2C9 [12]) was 19 µM and the Activity (Rattus norvegicus [13]) was “inactive”.
